Experiment [1] deals with T1, human insuline receptor (Ins-R) kinase domain (Homo sapiens, UniProt P06213).
T1 construct: GST-tagged recombinant kinase domain of the human insuline receptor; GST; purchased ProQinase, Freiburg, Germany; host or cells: SF-9 cells
The experiment in a line: InsR HTRF assay (assay 4). The experiment is classed as biochemical. The following applies: IC50 assay 4/IC50 assay 2. How it is done: Inhibitory activity of compounds against the kinase activity of the insulin receptor was quantified employing the Ins-R HTRF assay as described in the following paragraphs.
GST-tagged recombinant kinase domain of the human insuline receptor (Ins-R, purchase from ProQinase, Freiburg, Germany) expressed in SF-9 cells was used as kinase. As substrate for the kinase reaction biotinylated poly-(Glu,Tyr) (Cis biointernational, France) was used.
Ins-R was incubated for 20 min at 22° C. in the presence of different concentrations of test compounds in 5 μl assay buffer [50 mM Hepes/NaOH pH 7, 15 mM MnCl2, 1 mM dithiothreitol, 0.1 μM sodium ortho-vanadate, 0.015% (v/v) PEG20000, 10 μM adenosine-tri-phosphate (ATP), 0.3 μg/ml substrate, 1% (v/v) dimethylsulfoxide]. The concentration of Ins-R was adjusted depending of the activity of the enzyme lot and was chosen appropriate to have the assay in the linear range, typical concentrations were in the range of 10 pg/μl. The reaction was stopped by the addition of 5 μl of a solution of HTRF detection reagents (0.1 μM streptavidine-XLent and 1 nM PT66-Eu-Chelate, an europium-chelate labelled anti-phosphotyrosine antibody from Perkin Elmer) in an aqueous EDTA-solution (80 mM EDTA, 0.2% (w/v) bovine serum albumin in 50 mM HEPES/NaOH pH 7.0).
The resulting mixture was incubated 1 h at 22° C. to allow the binding of the biotinylated phosphorylated peptide to the streptavidine-XLent and the PT66-Eu-Chelate. Subsequently the amount of phosphorylated substrate was evaluated by measurement of the resonance energy transfer from the PT66-Eu-Chelate to the streptavidine-XLent. Therefore, the fluorescence emissions at 620 nm and 665 nm after excitation at 350 nm was measured in a HTRF reader, e.g. a Rubystar (BMG Labtechnologies, Offenburg, Germany) or a Viewlux (Perkin-Elmer). The ratio of the emissions at 665 nm and at […] was taken as the measure for the amount of phosphorylated substrate. The data were normalised (enzyme reaction without inhibitor=0% inhibition, all other assay components but no enzyme=100% inhibition) and IC50 values were calculated by a 4 parameter fit using an inhouse software.
(In general: In TR-FRET formats the signal depends on donor and acceptor labels being close together.)

In another experiment the target is Tie2 (Homo sapiens, UniProt Q02763). As to the kind of experiment: Tie2 ELISA assay (assay 1): cellular Tie2 autophosphorylation in Tie2-transfected CHO cells stimulated by angiopoietin-2. Further details: expressed in transfected cells; host or cells: CHO (DHFR-deficient), stably transfected: CHO Tie2/DHFR. The following applies: CHO Tie2/DHFR cells, Ang2 stimulated, Tie2 autophosphorylation sandwich-ELISA; pIC50 = -log IC50 molar; read-out: Tie 2 activity (assay 1). It counts as cell-based. How it is done: Cellular activity of compounds of the present invention as inhibitors of Tie2 kinase activity was measured employing a Tie2 ELISA assay as described in the following paragraphs. Herein CHO cell-cultures, which are stably transfected by known techniques with Tie2 using DHFR deficiency as selection marker, are stimulated by angiopoietin-2. The specific autophosphorylation of Tie2 receptors is quantified with a sandwich-ELISA using anti-Tie2 antibodies for catch and anti-phosphotyrosine antibodies coupled to HRP for detection.
Sequence of Tie2 (Q02763 23-1124): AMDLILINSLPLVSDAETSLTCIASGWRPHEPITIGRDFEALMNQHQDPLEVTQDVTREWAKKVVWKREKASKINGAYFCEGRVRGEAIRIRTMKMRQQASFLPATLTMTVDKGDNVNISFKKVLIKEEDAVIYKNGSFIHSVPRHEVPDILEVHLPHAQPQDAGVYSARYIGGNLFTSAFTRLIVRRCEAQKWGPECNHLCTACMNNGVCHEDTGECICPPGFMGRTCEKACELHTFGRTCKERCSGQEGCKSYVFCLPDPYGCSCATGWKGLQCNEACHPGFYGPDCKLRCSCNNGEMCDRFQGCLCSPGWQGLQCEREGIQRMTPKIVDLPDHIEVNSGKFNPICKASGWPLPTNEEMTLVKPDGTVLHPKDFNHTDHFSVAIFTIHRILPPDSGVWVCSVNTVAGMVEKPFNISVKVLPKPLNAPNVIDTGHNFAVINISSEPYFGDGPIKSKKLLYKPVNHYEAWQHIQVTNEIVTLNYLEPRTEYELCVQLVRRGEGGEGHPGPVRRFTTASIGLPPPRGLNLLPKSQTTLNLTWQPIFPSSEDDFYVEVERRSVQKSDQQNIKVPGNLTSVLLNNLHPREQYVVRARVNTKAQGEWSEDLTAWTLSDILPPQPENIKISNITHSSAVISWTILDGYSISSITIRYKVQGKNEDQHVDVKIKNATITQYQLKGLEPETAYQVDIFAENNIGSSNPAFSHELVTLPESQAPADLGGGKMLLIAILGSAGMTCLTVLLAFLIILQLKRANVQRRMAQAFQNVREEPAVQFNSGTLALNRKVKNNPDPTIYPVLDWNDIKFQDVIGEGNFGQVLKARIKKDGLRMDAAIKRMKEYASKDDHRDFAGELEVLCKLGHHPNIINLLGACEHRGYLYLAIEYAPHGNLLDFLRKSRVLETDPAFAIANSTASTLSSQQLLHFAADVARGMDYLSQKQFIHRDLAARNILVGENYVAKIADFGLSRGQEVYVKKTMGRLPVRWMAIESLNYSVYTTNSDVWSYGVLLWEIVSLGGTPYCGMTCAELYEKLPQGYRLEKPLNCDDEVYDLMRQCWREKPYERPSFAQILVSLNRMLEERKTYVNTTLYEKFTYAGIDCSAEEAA
• 96 well tissue culture plate, sterile, Greiner • 96 well FluoroNunc plate MaxiSorp Surface C, Nunc • 96 well plate polypropylene for compound dilution in DMSO • CHO Tie2/DHFR (transfected cells) • PBS−; PBS++, DMSO • MEM alpha Medium with Glutamax-I without Ribonucleosides and • Deoxyribonucleosides (Gibco #32561-029) • with 10% FCS after dialysis! and 1% PenStrep • Lysis buffer: 1 Tablet “Complete” protease inhibitor • 1 cap Vanadate (1 mL>40 mg/mL; working solution 2 mM) • ad 50 mL with Duschl-Puffer • pH 7.6 • Anti-Tie2-antibody 1:425 in Coating Buffer pH 9.6 • Stock solution: 1.275 mg/mL>working: 3 μg/mL • PBST: 2 bottles PBS(10×)+10 ml Tween, fill up with VE-water • RotiBlock 1:10 in VE-water • Anti-Phosphotyrosine HRP-Conjugated 1:10000 in 3% TopBlock • 3% TopBlock in PBST • BM Chemiluminescence ELISA Substrate (POD) • solution B1:100 solution A • SF9 cell culture medium • Ang2-Fc in SF9 cell culture medium Cell Experiment: • Dispense 5×10^4 cells/well/98 μL in 96 well tissue culture plate • Incubate at 37° C./5% CO2 • After 24 h add compounds according to desired concentrations • Add also to control and stimulated values without compounds 2 μL DMSO • And mix for a few min at room temperature • Add 100 μL Ang2-Fc to all wells except control, which receives insect medium • Incubate 20 min at 37° C. • Wash 3× with PBS++ • Add 100 μl Lysis buffer/well and shake a couple of min at room temperature • Store lysates at 20° C. before utilizing for the ELISA Performance of Sandwich-ELISA • Coat 96 well FluoroNunc Plate MaxiSorp Surface C with anti-Tie2 mAb • 1:425 in Coating buffer pH 9.6; 100 μL/well overnight at 4° C. • Wash 2× with PBST • Block plates with 250 μL/well RotiBlock 1:10 in VE-water • Incubate for 2 h at room temperature or overnight at 4° C. shaking • Wash 2× in PBST • Add thawed lysates to wells and incubate overnight shaking at 4° C. • Wash 2× with PBST • Add 100 μL/well anti-Phosphotyrosine HRP-Conjugated 1:10000 in 3% • TopBlock (3% TopBlock in PBST) and incubate overnight under shaking • Wash 6× with PBST • Add 100 μL/well BM Chemiluminescence ELISA Substrate (POD) • solutions 1 und 2 (1:100) • Determine luminescence with the LumiCount. Assay 2: Tie-2-Kinase HTRF-Assay without Kinase Preactivation
A general note: ELISA stands for enzyme-linked immunosorbent assay.

T1 sequence (P06213 1023-1298 limits assumed): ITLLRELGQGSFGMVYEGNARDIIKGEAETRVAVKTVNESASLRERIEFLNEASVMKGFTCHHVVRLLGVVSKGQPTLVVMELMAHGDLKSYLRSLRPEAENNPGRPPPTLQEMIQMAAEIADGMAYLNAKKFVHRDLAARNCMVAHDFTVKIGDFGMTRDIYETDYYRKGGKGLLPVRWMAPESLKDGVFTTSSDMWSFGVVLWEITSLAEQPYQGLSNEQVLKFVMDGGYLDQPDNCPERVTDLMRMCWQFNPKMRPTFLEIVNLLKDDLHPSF

For the compound `CCc1cccc(NC(=O)Nc2ccc(-c3cc(C(C)(C)C)nc4[nH]ncc34)cc2)c1` [1.1, 1-[4-(6-tert-Butyl-1H-pyrazolo[3,4-b]pyridin-4-yl)-phenyl]-3-(3-ethylphenyl)-urea], in experiment [1], the “Selectivity vs. InsR” value was above 20 fold. Also, the IC50 at Tie2 was below 501 nM.
With `CC(C)c1cc(-c2ccc(NC(=O)Nc3cccc(C(F)(F)F)c3)cc2)c2cn[nH]c2n1` [1.2, 1-[4-(6-Isopropyl-1H-pyrazolo[3,4-b]pyridin-4-yl)-phenyl]-3-(3-trifluoromethyl-phenyl)-urea], in experiment [1], the “Selectivity vs. InsR” value is listed as above 20 fold. The IC50 at Tie2 is below 501 nM.
As to `CC(C)c1cc(-c2ccc(NC(=O)Nc3cccc(C(F)(F)F)c3)cc2)c2cnn(C)c2n1` [1.3, 1-[4-(6-Isopropyl-1-methyl-1H-pyrazolo[3,4-b]pyridin-4-yl)-phenyl]-3-(3-trifluoromethyl-phenyl)-urea], the “Selectivity vs. InsR” value in experiment [1] is on record as above 20 fold. The IC50 on Tie2 was below 501 nM.
As to `Cn1ncc2c(-c3ccc(NC(=O)Nc4cccc(C(F)(F)F)c4)cc3)ccnc21` [1.4, 1-[4-(1-Methyl-1H-pyrazolo[3,4-b]pyridin-4-yl)-phenyl]-3-(3-trifluoromethyl-phenyl)-urea], the “Selectivity vs. InsR” value in experiment [1] is on record as above 20 fold. The IC50 at Tie2 was below 501 nM.
The matching figures for `Cc1ccc(F)c(NC(=O)Nc2ccc(-c3ccnc4c3cnn4C)cc2)c1` [1.7, 1-(2-Fluoro-5-methyl-phenyl)-3-[4-(1-methyl-1H-pyrazolo[3,4-b]pyridin-4-yl)-phenyl]-urea]: above 20 fold and below 501 nM.
As to `Cn1ncc2c(-c3ccc(NC(=O)Nc4cc(C(F)(F)F)ccc4F)cc3)ccnc21` [1.8, 1-(2-Fluoro-5-trifluoromethyl-phenyl)-3-[4-(1-methyl-1H-pyrazolo[3,4-b]-pyridin-4-yl)-phenyl]-urea], the “Selectivity vs. InsR” value in experiment [1] is above 20 fold. The IC50 on Tie2 is below 501 nM.
Take `Cc1cccc(NC(=O)Nc2ccc(-c3cc(C(C)(C)C)nc4[nH]ncc34)cc2)c1` [1.11, 1-[4-(6-tert-Butyl-1H-pyrazolo[3,4-b]pyridin-4-yl)-phenyl]-3-m-tolyl-urea]: the “Selectivity vs. InsR” value in experiment [1] was above 20 fold. Besides, the IC50 at Tie2 lay within 501 to 1000 nM.
Turning to `CN1CCN(Cc2ccc(NC(=O)Nc3ccc(-c4cc(C(C)(C)C)nc5[nH]ncc45)cc3)cc2C(F)(F)F)CC1` [1.15, 1-[4-(6-tert-Butyl-1H-pyrazolo[3,4-b]pyridin-4-yl)-phenyl]-3-[4-(4-methyl-piperazin-1-ylmethyl)-3-trifluoromethyl-phenyl]-urea], the “Selectivity vs. InsR” value in experiment [1] is recorded as above 20 fold. Moreover, the IC50 at Tie2 is below 501 nM.
As to `Cc1cc(-c2ccc(NC(=O)Nc3cccc(C(F)(F)F)c3)cc2)c2cn[nH]c2n1` [1.18, 1-[4-(6-Methyl-1H-pyrazolo[3,4-b]pyridin-4-yl)-phenyl]-3-(3-trifluoromethyl-phenyl)-urea], in experiment [1], the “Selectivity vs. InsR” value is on record as above 20 fold. Also, the IC50 at Tie2 is below 501 nM.
In the case of `O=C(Nc1ccc(-c2ccnc3[nH]ncc23)cc1)Nc1cccc(C(F)(F)F)c1` [1.20, 1-[4-(1H-Pyrazolo[3,4-b]pyridin-4-yl)-phenyl]-3-(3-trifluoromethyl-phenyl)-urea], the “Selectivity vs. InsR” value in experiment [1] is recorded as above 20 fold. In addition, the IC50 at Tie2 was below 501 nM.
The matching figures for `Cc1ccc(F)c(NC(=O)Nc2ccc(-c3ccnc4[nH]ncc34)cc2)c1` [1.22, 1-(2-Fluoro-5-methyl-phenyl)-3-[4-(1H-pyrazolo[3,4-b]pyridin-4-yl)-phenyl]-urea]: above 20 fold and below 501 nM.
For the compound `CN1CCC(Oc2ccc(NC(=O)Nc3ccc(-c4ccnc5c4cnn5C)cc3)cc2C(F)(F)F)CC1` [1.23, 1-[4-(1-Methyl-piperidin-4-yloxy)-3-trifluoromethyl-phenyl]-3-[4-(1-methyl-1H-pyrazolo[3,4-b]pyridin-4-yl)-phenyl]-urea], the “Selectivity vs. InsR” value in experiment [1] was above 20 fold. Moreover, the IC50 at Tie2 was below 501 nM.
Turning to `CN1CCN(Cc2ccc(NC(=O)Nc3ccc(-c4ccnc5c4cnn5C)cc3)cc2C(F)(F)F)CC1` [1.24, 1-[4-(4-Methyl-piperazin-1-ylmethyl)-3-trifluoromethyl-phenyl]-3-[4-(1-methyl-1H-pyrazolo[3,4-b]pyridin-4-yl)-phenyl]-urea], the “Selectivity vs. InsR” value in experiment [1] was above 20 fold. Besides, the IC50 at Tie2 was below 501 nM.
Turning to `CN(C)C(=O)C1(c2cc(-c3ccc(NC(=O)Nc4cccc(C(F)(F)F)c4)cc3)c3cnn(C)c3n2)CC1` [1.26, 1-(1-Methyl-4-{4-[3-(3-trifluoromethyl-phenyl)-ureido]-phenyl}-1H-pyrazolo[3,4-b]pyridin-6-yl)-cyclopropane-carboxylic acid dimethylamide], in experiment [1], the “Selectivity vs. InsR” value is above 20 fold. Besides, the IC50 on Tie2 is below 501 nM.
As for `Cc1ccc(F)c(NC(=O)Nc2ccc(-c3cc(C4(C(=O)N(C)C)CC4)nc4c3cnn4C)cc2)c1` [1.29, 1-(4-{4-[3-(2-Fluoro-5-methyl-phenyl)-ureido]-phenyl}-1-methyl-1H-pyrazolo[3,4-b]pyridin-6-yl)-cyclopropane-carboxylic acid dimethylamide], in experiment [1], the “Selectivity vs. InsR” value was above 20 fold. Further, on Tie2, the IC50 was below 501 nM.
The matching figures for `CN1CCN(Cc2ccc(NC(=O)Nc3ccc(-c4ccnc5[nH]ncc45)cc3)cc2C(F)(F)F)CC1` [1.33, 1-[4-(4-Methyl-piperazin-1-yl-methyl)-3-trifluoromethyl-phenyl]-3-[4-(1H-pyrazolo[3,4-b]pyridin-4-yl)-phenyl]-urea]: above 20 fold and below 501 nM.
Turning to `Cn1ncc2c(-c3ccc(NC(=O)Nc4cccc(C(F)(F)F)c4)cc3)cc(C3CCC3)nc21` [1.37, 1-[4-(6-Cyclobutyl-1-methyl-1H-pyrazolo[3,4-b]pyridin-4-yl)-phenyl]-3-(3-trifluoromethyl-phenyl)-urea], the “Selectivity vs. InsR” value in experiment [1] was above 20 fold. Moreover, on Tie2, the IC50 was below 501 nM.
In the case of `Cn1ncc2c(-c3ccc(NC(=O)Nc4cccc(C(F)(F)F)c4)cc3)cc(C3CCCCC3)nc21` [1.38, 1-[4-(6-Cyclohexyl-1-methyl-1H-pyrazolo[3,4-b]pyridin-4-yl)-phenyl]-3-(3-trifluoromethyl-phenyl)-urea], the “Selectivity vs. InsR” value in experiment [1] was above 20 fold. For the same compound, the IC50 at Tie2 is below 501 nM.

Values taken from US7846928B2, “Substituted pyrazolopyridines and salts thereof, pharmaceutical compositions comprising same, methods of preparing same and uses of same” (Bayer Schering Pharma AG, priority 2006, dated 2010).
